According to patent US20250152585A1, “PHARMACEUTICAL COMPOUND” (Duke Street Bio Limited, priority 2022, published 2025):
Like-named read-outs stand apart in the source and are kept apart here.

Key:
[1] = target: T1, N-terminally FLAG-tagged PARP2 (amino acids 1-583) (Homo sapiens, UniProt Q9UGN5); test: PARP2 probe displacement HTRF assay; format: binding; details: binned Kd
T1 construct: N-terminally FLAG-tagged PARP2 (amino acids 1-583)
Protocol: Data analysis was performed identical as for PARP1.

[2] = target: T2, full length N-terminally FLAG-tagged PARP1 (Homo sapiens, UniProt P09874); test: PARP1 probe displacement HTRF assay; details: for Kd: binned Kd; for Selectivity: PARP1 over PARP2, ratio Kd (PARP2)/Kd (PARP1)
[3] = target: T2, full length N-terminally FLAG-tagged PARP1; test: PARP1 biochemical DELFIA assay (auto-PARylation); design: recombinant full length human N-terminally FLAG-tagged PARP1
[4] = binned IC50, biochemical auto-PARylation assay
[5] = read-out: PARP1 HTRF, probe displacement HTRF
[6] = read-out: PARP1 HTRF, PARP1 probe displacement HTRF
[7] = binned IC50, PARP1 biochemical DELFIA assay
[8] = PARP1 HTRF, PARP1 probe displacement HTRF

T2 sequence (P09874 whole entry): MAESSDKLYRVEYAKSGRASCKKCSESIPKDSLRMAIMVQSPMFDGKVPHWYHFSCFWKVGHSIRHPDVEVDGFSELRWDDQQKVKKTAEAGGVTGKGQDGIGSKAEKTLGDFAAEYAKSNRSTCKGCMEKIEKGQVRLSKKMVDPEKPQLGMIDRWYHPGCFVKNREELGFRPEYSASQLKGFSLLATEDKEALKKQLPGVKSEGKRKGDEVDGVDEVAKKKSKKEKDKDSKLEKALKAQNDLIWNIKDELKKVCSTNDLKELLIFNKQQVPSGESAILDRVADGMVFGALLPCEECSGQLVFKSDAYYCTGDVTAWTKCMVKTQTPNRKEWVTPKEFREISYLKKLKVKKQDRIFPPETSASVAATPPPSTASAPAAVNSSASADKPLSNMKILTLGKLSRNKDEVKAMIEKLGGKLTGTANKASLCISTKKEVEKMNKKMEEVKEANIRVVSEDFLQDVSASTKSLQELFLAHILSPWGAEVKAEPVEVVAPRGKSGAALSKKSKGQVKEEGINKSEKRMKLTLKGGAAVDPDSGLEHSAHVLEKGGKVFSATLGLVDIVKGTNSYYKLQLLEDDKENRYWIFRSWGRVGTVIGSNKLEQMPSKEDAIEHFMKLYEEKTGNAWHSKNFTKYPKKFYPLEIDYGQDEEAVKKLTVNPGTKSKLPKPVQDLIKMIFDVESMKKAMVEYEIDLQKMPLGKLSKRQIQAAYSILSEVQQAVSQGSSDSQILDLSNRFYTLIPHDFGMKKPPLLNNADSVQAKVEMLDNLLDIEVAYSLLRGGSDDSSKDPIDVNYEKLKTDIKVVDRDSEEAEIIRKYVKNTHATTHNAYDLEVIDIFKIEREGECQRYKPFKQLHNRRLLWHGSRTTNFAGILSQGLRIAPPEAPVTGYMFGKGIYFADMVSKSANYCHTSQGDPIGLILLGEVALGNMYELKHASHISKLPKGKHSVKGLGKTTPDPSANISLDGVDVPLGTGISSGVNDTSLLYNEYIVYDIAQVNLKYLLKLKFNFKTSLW
T1 sequence (Q9UGN5 whole entry, the tested form may be a part): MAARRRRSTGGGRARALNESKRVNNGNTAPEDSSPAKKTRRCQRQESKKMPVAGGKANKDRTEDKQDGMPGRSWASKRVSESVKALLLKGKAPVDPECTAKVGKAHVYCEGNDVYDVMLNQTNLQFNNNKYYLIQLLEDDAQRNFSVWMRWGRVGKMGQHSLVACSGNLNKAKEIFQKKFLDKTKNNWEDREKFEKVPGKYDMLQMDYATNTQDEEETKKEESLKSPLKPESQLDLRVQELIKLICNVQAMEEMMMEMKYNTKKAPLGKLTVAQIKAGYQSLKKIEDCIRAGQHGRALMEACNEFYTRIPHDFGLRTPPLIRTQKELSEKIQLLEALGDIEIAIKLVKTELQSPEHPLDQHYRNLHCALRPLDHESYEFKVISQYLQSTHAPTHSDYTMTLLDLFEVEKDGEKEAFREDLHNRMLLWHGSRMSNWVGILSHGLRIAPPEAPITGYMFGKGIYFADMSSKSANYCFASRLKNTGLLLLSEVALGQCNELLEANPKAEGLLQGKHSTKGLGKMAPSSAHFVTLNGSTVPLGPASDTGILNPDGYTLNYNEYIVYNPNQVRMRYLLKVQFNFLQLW

Compound	Kd ([1]; probe displacement HTRF)	Kd ([2]; PARP1 HTRF, probe displacement HTRF)	Selectivity ([2]; probe displacement HTRF)	IC50 [3, 4]	Kd [2, 5]	Kd ([1]; PARP2 probe displacement HTRF)	Kd [2, 6]	IC50 [3, 7]	Kd [2, 8]
CNC(=O)c1ccc(N2CCC(N3CC4(c5nc6ccccc6c(=O)[nH]5)CC3(CO)C4)CC2)cn1 [Compound 284]	> 10000 nM	< 10 nM	+++ (+++ indicate a value of at least 100)	< 10 nM					
CNC1(c2ccc(N3CCC(N4CCC(c5nc6ccccc6c(=O)[nH]5)C4)CC3)cn2)CC1 (racemic) [Compound 412rac]	> 10000 nM		+ (+ indicates a value of 10 to less than 50)	100 to 1000 nM	100 to 1000 nM				
CNC(=O)c1ccc(N2CCC(N3CCC(c4cc5nccc(N)c5c(=O)[nH]4)C3)CC2)cn1 (racemic) [Compound 200rac]			+++ (+++ indicate a value of at least 100)			> 10000 nM	10 to 100 nM	10 to 100 nM	
CNC(=O)c1ccc(N2CCC(N3CCC(c4cc5ccc(F)cc5c(=O)[nH]4)C3)CC2)c(Cl)n1 (single isomer, unassigned) [Compound 223a]	100 to 1000 nM		+++ (+++ indicate a value of at least 100)	< 10 nM	< 10 nM				
CNC(=O)c1ccc(N2CCC(CN3CC4(c5nc6ccccc6c(=O)[nH]5)CC3C4)CC2)cn1 [Compound 193]			+++ (+++ indicate a value of at least 100)			1000 to 10000 nM		10 to 100 nM	10 to 100 nM
CNC(=O)c1ccc(N2CCC(N3CCC(c4cc5c(c(=O)[nH]4)CCCN5)C3)CC2)cn1 (racemic) [Compound 233rac]	100 to 1000 nM		+++ (+++ indicate a value of at least 100)	< 10 nM	< 10 nM				
CNC(=O)c1ccc(N2CCC(N3CCC(c4nc5sc6c(c5c(=O)[nH]4)CCC6)C3)CC2)cn1 (single isomer, unassigned) [Compound 189b]			++ (++ indicates a value of 50 to less than 100)			10 to 100 nM	< 10 nM	< 10 nM	
CNC(=O)c1ccc(N2CCC(N3CCC(c4nc5ncccc5c(=O)[nH]4)C3)CC2)cn1 (single isomer, unassigned) [Compound 60a]			+++ (+++ indicate a value of at least 100)			> 10000 nM	< 10 nM	< 10 nM	
O=C(NCC(F)(F)F)c1ccc(N2CCC(N3CCC(c4nc5ccccc5c(=O)[nH]4)C3)CC2)cn1 (single isomer, unassigned) [Compound 130a]			+ (+ indicates a value of 10 to less than 50)			100 to 1000 nM	< 10 nM	< 10 nM	
CNC(=O)c1ccc(N2CCC(N3CCC(c4[nH]c(=O)c5c(F)cccc5c4F)C3)CC2)c(F)n1 (single isomer, unassigned) [Compound 402a]	100 to 1000 nM		+++ (+++ indicate a value of at least 100)	< 10 nM	< 10 nM				
CCc1ccc(C2CCN(C3CCN(c4ccc(C(=O)NCC(F)F)nc4F)CC3)C2)[nH]c1=O (single isomer, unassigned) [Compound 398a]	1000 to 10000 nM		+++ (+++ indicate a value of at least 100)	< 10 nM	< 10 nM				
CNC(=O)c1ccc(F)c(N2CCC(N3CCCC(c4nc5ccccc5c(=O)[nH]4)C3)CC2)n1 (racemic) [Compound 95rac]			− (− indicates a value of less than 10)			1000 to 10000 nM	1000 to 10000 nM	100 to 1000 nM	
CNC(=O)c1ccc(N2CCC(N3CCC(c4nc(C)cc(=O)[nH]4)C3)CC2)cn1 (single isomer, unassigned) [Compound 97a]			− (− indicates a value of less than 10)			> 10000 nM	> 10000 nM	> 10000 nM	
CCc1ccc(C2CCN(C3CCN(c4ccc(C(=O)NCC(F)(F)F)nc4F)CC3)C2)[nH]c1=O (single isomer, unassigned) [Compound 285b]	> 10000 nM		+++ (+++ indicate a value of at least 100)	< 10 nM	< 10 nM				
CNC(=O)c1ccc(N2CCC(N3CCC(c4cc5c(c(C(F)(F)F)nn5C)c(=O)[nH]4)C3)CC2)c(F)n1 (single isomer, unassigned) [Compound 407a]	100 to 1000 nM		++ (++ indicates a value of 50 to less than 100)	10 to 100 nM	< 10 nM				
CNC(=O)c1ccc(N2CCC(N3CCC(c4nc5c(c(=O)[nH]4)CCCN5C)C3)CC2)cn1 (single isomer, unassigned) [Compound 208b, N-methyl-5-(4-(3-(8-methyl-4-oxo-3,4,5,6,7,8-hexahydropyrido[2,3-d]pyrimidin-2-yl)pyrrolidin-1-yl)piperidin-1-yl)picolinamide]			++ (++ indicates a value of 50 to less than 100)			10 to 100 nM		< 10 nM	< 10 nM
